{"source": "patent US9999625B2", "about": "“Pyrrolobenzodiazepine compounds” (FEMTOGENIX LIMITED, priority 2014, dated 2018)", "key": {"[1]": {"tested_on": "MDA MB231 (triple negative human breast cancer)", "test": "Cytotoxicity by MTT assay", "type": "cell-based", "conditions": "72 hours exposure, MDA MB 231", "procedure": "MDA MB231 (triple negative human breast cancer) was obtained from the American Type Culture Collection. The cell-line was maintained in monolayer culture in 75 cm^2 flasks (TPP, Switzerland) under a humidified 5% CO2 atmosphere at 37° C. The MDA MB231 cell line was maintained in high glucose (Dulbecco's Modified Eagle Medium) DMEM (4.5 g\\l; Invitrogen), foetal bovine serum (10%, Biosera UK), non-essential amino acids (ix; Invitrogen), L-glutamine (2 mM; Invitrogen) and Penicillin-Streptomycin (1% v/v, Invitrogen). For passaging, cells were washed with PBS [Phosphate-Buffered Saline] […] For seeding, cells were counted using a Neubauer haemocytometer (Assistant, Germany) by microscopy (Nikon, USA) on a non-adherent suspension of cells that were washed in PBS, trypsinised, centrifuged at 8° C. at 8000 rpm for 5 min and re-suspended in fresh medium.\nThe cells were grown in normal cell culture conditions at 37° C. under a 5% CO2 humidified atmosphere using appropriate medium. […] After 72 h of continuous exposure to each compound, the cytotoxicity was determined using the 3-(4,5-Dimethylthiazol-2-yl)-2,5-diphenyltetrazolium bromide (MTT) (Lancaster Synthesis Ltd, UK) colorimetric assay. Absorbance was quantified by spectrophotometry at λ=570 nm (Envision Plate Reader, PerkinElmer, USA). IC50 values were calculated by a dose-response analysis using the Prism GraphPad Prism® software. […]"}, "[2]": {"tested_on": "NF-KB consensus sequence (5′-GGGACAGCCC-3′)", "test": "HPLC assay of DNA adduct formation", "type": "binding", "conditions": "4:1 ligand:oligonucleotide, room temperature, UV 254 nm", "from_the_text": "(§1) The interactions of C1-linked PBD core compound (42), […] C1-linked PBD dimer compound (51) were studied with duplex transcription factor consensus sequences. For the C1-linked PBD core compound (42) and C1-linked PBD dimer compound (51) the study used a STAT3 consensus sequence (5′-GACATTGC-3′). Whereas for the C1-linked PBD monomer compound (49), an NF-KB consensus sequence (5′-GGGACAGCCC-3′) was used in the study. The interactions of each of the three compounds were studied with an HPLC assay utilizing a X-bridge MS […] Oligonucleotide Separation Technology (OST) column (2.3×50 mm) and a gradient of 40% acetonitrile/water and 100 mM TEAB ([…])/water as mobile phase with a flow rate of 0.5 mL/min and UV detection at 254 nm. A 4:1 molar ratio of ligand:oligonucleotide was used, with each single-stranded oligonucleotide dissolved in 1M ammonium acetate to form stock solutions of 1 mM. The oligonucleotides were initially annealed by heating their 1 mM solutions to 70° C. for 10 mins followed by gradual cooling over 8 hours and storage overnight at −20° C. Working solutions of oligonucleotides of 25 μM were then prepared by diluting the annealed stock solutions with 100 mM ammonium acetate. The ligands were dissolved in DMSO to form a stock solution of 10 mM which was stored at −20° C. for no longer than four months. Working solutions of the drug of 100 μM were prepared by diluting the stock solution with 100 mM ammonium acetate. The working solutions of the ligands were added to the working solution the oligonucleotides at RT, and the mixture incubated for different time intervals at room temperature. […] The chromatograms for HPLC assays using C1-linked PBD core (42), monomer (49) and dimer (51) compounds are shown in FIGS. 7, 8 and 9 respectively."}, "[3]": {"tested_on": "STAT3 consensus sequence (5′-GACATTGC-3′)", "test": "HPLC assay of DNA adduct formation", "type": "binding", "conditions": "4:1 ligand:oligonucleotide, room temperature, UV 254 nm", "from_the_text": "as §1"}, "[4]": {"tested_on": "cancer cell lines", "conditions": "cited from earlier work"}}, "note": "“Also recorded” adds a separate entry of the source.", "data": [{"smiles": "COC(=O)c1cc(-c2ccc(NC(=O)c3nc(NC(=O)CO[C@H]4CCN5C(=O)c6cc(OC)c(OC)cc6N=C[C@H]45)cn3C)cc2)cn1C", "note": "[Compound 49, Methyl 4-(4-(4-(2-(((1S,11aR)-7,8-dimethoxy-5-oxo-2,3,5,11a-tetrahydro-1H-benzo[e]pyrrolo[1,2-a][1,4]diazepin-1-yl)oxy)acetamido)-1-methyl-1H-imidazole-2-carboxamido)phenyl)-1-methyl-1H-pyrrole-2-carboxylate]", "values": [{"measurement": "IC50", "setting": "[1]", "result": "36 ± 2.3", "unit": "nM"}, {"measurement": "DNA adduct formation (HPLC chromatogram)", "setting": "[2]", "result": "evidence of DNA adduct formation; also recorded: interacted with the DNA consensus sequence to form adducts"}]}, {"smiles": "COc1cc2c(cc1OC)C(=O)N1CC[C@H](O)[C@H]1C=N2", "note": "[Compound 42, (1S,11aR)-1-Hydroxy-7,8-dimethoxy-1,2,3,11a-tetrahydro-5H-benzo[e]pyrrolo[1,2-a][1,4]diazepin-5-one]", "values": [{"measurement": "DNA adduct formation (HPLC chromatogram)", "setting": "[3]", "result": "evidence of DNA adduct formation; also recorded: interacted with the DNA consensus sequence to form adducts"}]}, {"smiles": "COc1cc2c(cc1OC)C(=O)N1CC[C@H](OCCCO[C@H]3CCN4C(=O)c5cc(OC)c(OC)cc5N=C[C@H]34)[C@H]1C=N2", "note": "[Compound 51, (1S,1′S)-1,1′-(Propane-1,3-diylbis(oxy))bis(7,8-dimethoxy-1,2,3,11a-tetrahydro-5H-benzo[e]pyrrolo [1,2-a][1,4]diazepin-5-one)]", "values": [{"measurement": "IC50", "setting": "[1]", "result": "236 ± 27", "unit": "nM"}, {"measurement": "DNA adduct formation (HPLC chromatogram)", "setting": "[3]", "result": "evidence of DNA adduct formation; also recorded: interacted with the DNA consensus sequence to form adducts"}]}, {"smiles": "COC(=O)c1cc(-c2ccc(NC(=O)c3nc(NC(=O)CCCOc4cc5c(cc4OC)C(=O)N4CCC[C@H]4C=N5)cn3C)cc2)cn1C", "note": "[KMR-28-39]", "values": [{"measurement": "activity against some cancer cell lines", "setting": "[4]", "result": "femtomolar activity"}]}]}
